From patent US20150299188A1, “HETEROCYCLIC COMPOUND” (priority 2012, published 2015)

System: FLAP (5-lipoxygenase activating protein)
Assay: In vitro binding test: displacement of [3H]-7-chloro-3-(5-((3-fluoropyridin-2-yl)methoxy)-2-methylphenyl)-3,4-dihydroquinazolin-2(1H)-one from Sf9 microsome fractions
Set-up: species or system human and mouse
Conditions: Sf9 microsome fractions expressing FLAP; 100% = radioligand binding with 10 μM sodium 3-(3-(tert-butylsulfanyl)-1-(4-chlorobenzyl)-5-isopropyl-1H-indol-2-yl)-2,2-dimethylpropanoate, 0% = DMSO; test compound concentration not given
Experimental: As an assay buffer, 100 mM Tris-HCl, pH 7.5, 140 mM NaCl, 2 mM EDTA, 0.5 mM dithiothreitol, 5% glycerol, 0.05% Tween20 was used. Sf9 microsome fractions expressing human and mouse FLAPs were dispensed by 50 μL to a 96-well plate at 2 μg/mL. Furthermore, a test compound (25 μL) diluted 4-fold of the final concentration with the assay buffer was added and mixed therewith, and the mixture was incubated at room temperature for 10 min. Furthermore, 120 nM [^3H]-7-chloro-3-(5-((3-fluoropyridin-2-yl)methoxy)-2-methylphenyl)-3,4-dihydroquinazolin-2(1H)-one was added by 25 μL, and mixed therewith, and the mixture was incubated at room temperature for 60 min. Thereafter, the cells were transferred to a 96-well GF/B Unifilter plate with a FilterMate cell harvester, and washed 3 times with a wash buffer (100 mM Tris-HCl pH 7.5, 0.05% Tween20, 200 μL) cooled to 4° C. The GF/B Unifilter plate was dried at 37° C., Microscint 0 was added and measured by TopCount NXT (PerkinElmer). As for the inhibitory activity, the inhibitory rate was calculated wherein the [^3H]-7-chloro-3-(5-((3-fluoropyridin-2-yl)methoxy)-2-methylphenyl)-3,4-dihydroquinazolin-2(1H)-one binding amount in the presence of 10 μM sodium 3-(3-(tert-butylsulfanyl)-1-(4-chlorobenzyl)-5-isopropyl-1H-indol-2-yl)-2,2-dimethylpropanoate was 100%, and the [^3H]-7-chloro-3-(5-((3-fluoropyridin-2-yl)methoxy)-2-methylphenyl)-3,4-dihydroquinazolin-2(1H)-one binding amount in the presence of DMSO was 0%.

Row | SMILES | inhibitory rate (%)
1 | Cc1cc2c(cc1N1Cc3c(Cl)cnc(-c4c(C)nn(C)c4C)c3NC1=O)OC(c1ncccc1F)CC2 (single isomer, unassigned; (-)) [Example 15, (−)-5-chloro-3-(2-(3-fluoropyridin-2-yl)-6-methyl-3,4-dihydro-2H-chromen-7-yl)-8-(1,3,5-trimethyl-1H-pyrazol-4-yl)-3,4-dihydropyrido[3,4-d]pyrimidin-2(1H)-one] | 102%
2 | COC1CN(C(=O)c2cc3c(c(C4CC4)n2)CN(c2cc4c(cc2Cl)CCC(c2ncccc2F)O4)C(=O)N3)C1 (stereo not shown) [Example 146, 3-(6-chloro-2-(3-fluoropyridin-2-yl)-3,4-dihydro-2H-chromen-7-yl)-5-cyclopropyl-7-((3-methoxyazetidin-1-yl)carbonyl)-3,4-dihydropyrido[4,3-d]pyrimidin-2(1H)-one] | 97%
3 | Cc1cc2c(cc1N1Cc3c(C4CC4)cnc(-c4cnn(C)c4)c3NC1=O)OC(c1ncccc1F)CC2 (stereo not shown) [Example 162, 5-cyclopropyl-3-(2-(3-fluoropyridin-2-yl)-6-methyl-3,4-dihydro-2H-chromen-7-yl)-8-(1-methyl-1H-pyrazol-4-yl)-3,4-dihydropyrido[3,4-d]pyrimidin-2(1H)-one] | 95%
4 | Cc1cc2c(cc1N1Cc3ncccc3NC1=O)OC(c1ncccc1F)CC2 (stereo not shown) [Example 45, 3-(2-(3-fluoropyridin-2-yl)-6-methyl-3,4-dihydro-2H-chromen-7-yl)-3,4-dihydropyrido[3,2-d]pyrimidin-2(1H)-one] | 99%
5 | Cc1cc2c(cc1N1Cc3c(cc(C4COC4)nc3C3CC3)NC1=O)OC(c1ncccc1F)CC2 (stereo not shown) [Example 42, 5-cyclopropyl-3-(2-(3-fluoropyridin-2-yl)-6-methyl-3,4-dihydro-2H-chromen-7-yl)-7-(oxetan-3-yl)-3,4-dihydropyrido[4,3-d]pyrimidin-2(1H)-one] | 116%
6 | Cn1cc(-c2ncc(C3CC3)c3c2NC(=O)N(c2cc4c(cc2Cl)CCC(c2ncccc2F)O4)C3)cn1 (stereo not shown) [Example 163, 3-(6-chloro-2-(3-fluoropyridin-2-yl)-3,4-dihydro-2H-chromen-7-yl)-5-cyclopropyl-8-(1-methyl-1H-pyrazol-4-yl)-3,4-dihydropyrido[3,4-d]pyrimidin-2(1H)-one] | 98%
7 | O=C1Nc2ccnc(C(F)(F)F)c2CN1c1cc2c(cc1F)CCC(c1ncccc1F)O2 (stereo not shown) [Example 68, 3-(6-fluoro-2-(3-fluoropyridin-2-yl)-3,4-dihydro-2H-chromen-7-yl)-5-(trifluoromethyl)-3,4-dihydropyrido[4,3-d]pyrimidin-2(1H)-one] | 113%
8 | Cc1cc2c(cc1N1Cc3c(Cl)cc(C(=O)NC4CC4)cc3NC1=O)OC(c1ncccc1F)CC2 (stereo not shown) [Example 82, 5-chloro-N-cyclopropyl-3-(2-(3-fluoropyridin-2-yl)-6-methyl-3,4-dihydro-2H-chromen-7-yl)-2-oxo-1,2,3,4-tetrahydroquinazoline-7-carboxamide] | 101%
9 | CC(C)(O)CNC(=O)c1ccc(OCc2c(F)cccc2F)cc1N1Cc2ccccc2NC1=O [Example 190, 4-((2,6-difluorobenzyl)oxy)-N-(2-hydroxy-2-methylpropyl)-2-(2-oxo-1,4-dihydroquinazolin-3(2H)-yl)benzamide] | 55%
10 | Cc1cc2c(cc1N1Cc3c(Cl)cnc(C)c3NC1=O)OC(c1ncccc1F)CC2 (stereo not shown) [Example 129, 5-chloro-3-(2-(3-fluoropyridin-2-yl)-6-methyl-3,4-dihydro-2H-chromen-7-yl)-8-methyl-3,4-dihydropyrido[3,4-d]pyrimidin-2(1H)-one] | 114%
11 | O=C1Nc2cc(-c3nnco3)nc(C3CC3)c2CN1c1cc2c(cc1Cl)CCC(c1ncccc1F)O2 (stereo not shown) [Example 124, 3-(6-chloro-2-(3-fluoropyridin-2-yl)-3,4-dihydro-2H-chromen-7-yl)-5-cyclopropyl-7-(1,3,4-oxadiazol-2-yl)-3,4-dihydropyrido[4,3-d]pyrimidin-2(1H)-one] | 104%
12 | Cc1noc(-c2cc3c(c(C4CC4)n2)CN(c2cc4c(cc2Cl)CCC(c2ncccc2F)O4)C(=O)N3)n1 (stereo not shown) [Example 121, 3-(6-chloro-2-(3-fluoropyridin-2-yl)-3,4-dihydro-2H-chromen-7-yl)-5-cyclopropyl-7-(3-methyl-1,2,4-oxadiazol-5-yl)-3,4-dihydropyrido[4,3-d]pyrimidin-2(1H)-one] | 111%
13 | Cc1nc(C)c2c(c1Cl)CN(c1cc3c(cc1Cl)CCC(c1ncccc1F)O3)C(=O)N2 (stereo not shown) [Example 79, 5-chloro-3-(6-chloro-2-(3-fluoropyridin-2-yl)-3,4-dihydro-2H-chromen-7-yl)-6,8-dimethyl-3,4-dihydropyrido[3,4-d]pyrimidin-2(1H)-one] | 98%
14 | Cn1cc(-c2nccc3c2CN(c2cc4c(cc2Cl)CCC(c2ncccc2F)O4)C(=O)N3)cn1 (stereo not shown) [Example 62, 3-(6-chloro-2-(3-fluoropyridin-2-yl)-3,4-dihydro-2H-chromen-7-yl)-5-(1-methyl-1H-pyrazol-4-yl)-3,4-dihydropyrido[4,3-d]pyrimidin-2(1H)-one] | 100%
15 | COc1cccnc1C1CCc2cc(Cl)c(N3Cc4c(ccnc4C4CC4)NC3=O)cc2O1 (stereo not shown) [Example 64, 3-(6-chloro-2-(3-methoxypyridin-2-yl)-3,4-dihydro-2H-chromen-7-yl)-5-cyclopropyl-3,4-dihydropyrido[4,3-d]pyrimidin-2(1H)-one] | 94%
16 | COCc1ccc2c(c1)NC(=O)N(c1cc(OCc3c(F)cccc3F)ccc1C)C2 [Example 193, 3-(5-((2,6-difluorobenzyl)oxy)-2-methylphenyl)-7-(methoxymethyl)-3,4-dihydroquinazolin-2(1H)-one] | 97%

Next, values leading:

Row | inhibitory rate (%) | SMILES
17 | 94% | Cc1ccc(OCc2ncccc2F)cc1N1Cc2c(ccnc2C)NC1=O [Example 323, 3-(5-((3-fluoropyridin-2-yl)methoxy)-2-methylphenyl)-5-methyl-3,4-dihydropyrido[4,3-d]pyrimidin-2(1H)-one]
18 | 104% | Cc1ccc(OCc2ncccc2F)cc1N1Cc2c(C#N)cccc2NC1=O [Example 298, 3-(5-((3-fluoropyridin-2-yl)methoxy)-2-methylphenyl)-2-oxo-1,2,3,4-tetrahydroquinazoline-5-carbonitrile]
19 | 76% | O=C(O)CCc1ccc(OCc2ncccc2F)cc1N1Cc2ccccc2NC1=O [Example 229, 3-(4-((3-fluoropyridin-2-yl)methoxy)-2-(2-oxo-1,4-dihydroquinazolin-3(2H)-yl)phenyl)propanoic acid]
20 | 103% | Cc1ccc(OCc2ncccc2F)cc1N1Cc2c(Br)cncc2NC1=O [Example 315, 5-bromo-3-(5-((3-fluoropyridin-2-yl)methoxy)-2-methylphenyl)-3,4-dihydropyrido[3,4-d]pyrimidin-2(1H)-one]
21 | 85% | O=C1Nc2cc(CO)ccc2CN1c1cc(OCc2c(F)cccc2F)ccc1F [Example 234, 3-(5-((2,6-difluorobenzyl)oxy)-2-fluorophenyl)-7-(hydroxymethyl)-3,4-dihydroquinazolin-2(1H)-one]
22 | 100% | COCCN1C(=O)N(c2cc(OCc3ncccc3F)ccc2C)Cc2c(Cl)cccc21 [Example 283, 5-chloro-3-(5-((3-fluoropyridin-2-yl)methoxy)-2-methylphenyl)-1-(2-methoxyethyl)-3,4-dihydroquinazolin-2(1H)-one]
23 | 90% | Cc1ccc(OCc2ncccc2F)cc1N1Cc2c(ccnc2C#N)NC1=O [Example 321, 3-(5-((3-fluoropyridin-2-yl)methoxy)-2-methylphenyl)-2-oxo-1,2,3,4-tetrahydropyrido[4,3-d]pyrimidine-5-carbonitrile]
24 | 99% | Cc1ccc(OCc2ncc(F)cc2F)cc1N1Cc2ccccc2NC1=O [Example 247, 3-(5-((3,5-difluoropyridin-2-yl)methoxy)-2-methylphenyl)-3,4-dihydroquinazolin-2(1H)-one]
25 | 77% | Cc1ccc(OCc2c(F)cccc2F)cc1N1Cc2ccc(C(=O)N3CCCC(O)C3)cc2NC1=O (stereo not shown) [Example 205, 3-(5-((2,6-difluorobenzyl)oxy)-2-methylphenyl)-7-((3-hydroxypiperidin-1-yl)carbonyl)-3,4-dihydroquinazolin-2(1H)-one]
26 | 90% | Cc1ccc(OCc2ncccc2F)cc1-n1c(=O)[nH]c2cccnc2c1=O [Example 338, 3-(5-((3-fluoropyridin-2-yl)methoxy)-2-methylphenyl)pyrido[3,2-d]pyrimidine-2,4(1H,3H)-dione]
27 | 87% | Cc1ccc(OCc2c(F)cccc2F)cc1N1Cc2ccc(C(=O)NC(C)(C)C(=O)O)cc2NC1=O [Example 207, N-((3-(5-((2,6-difluorobenzyl)oxy)-2-methylphenyl)-2-oxo-1,2,3,4-tetrahydroquinazolin-7-yl)carbonyl)-2-methylalanine]
28 | 106% | Cc1ccc(OCc2ncccc2F)cc1-n1c(=O)[nH]c2cnccc2c1=O [Example 339, 3-(5-((3-fluoropyridin-2-yl)methoxy)-2-methylphenyl)pyrido[3,4-d]pyrimidine-2,4(1H,3H)-dione]
